ChEMBL document CHEMBL1687864, “Carijodienone from the octocoral Carijoa multiflora. A spiropregnane-based steroid” (2011)
Converted amounts (≈) assume the structure as drawn.

Key:
Format in all cases: functional
Enterococcus faecalis = assay: Antibacterial activity against Enterococcus faecalis by broth macrodilution method
Staphylococcus aureus = assay: Antibacterial activity against Staphylococcus aureus by broth macrodilution method
Proteus mirabilis = assay: Antibacterial activity against Proteus mirabilis by broth macrodilution method
Klebsiella pneumoniae = assay: Antibacterial activity against Klebsiella pneumoniae by broth macrodilution method
Escherichia coli = assay: Antibacterial activity against Escherichia coli by broth macrodilution method
Bacillus cereus = assay: Antibacterial activity against Bacillus cereus by broth macrodilution method
Salmonella = assay: Antibacterial activity against Salmonella by broth macrodilution method

SMILES: C=C[C@H]1CC[C@H]2[C@@H]3CCC4=CC(=O)C=C[C@]4(C)[C@H]3CC[C@]12C
- MIC (Enterococcus faecalis): > 40 µg/mL
- MIC (Staphylococcus aureus): > 40 µg/mL
- MIC (Proteus mirabilis): > 40 µg/mL
- MIC (Klebsiella pneumoniae): > 40 µg/mL
- MIC (Escherichia coli): > 40 µg/mL
- MIC (Bacillus cereus): > 40 µg/mL
- MIC (Salmonella): > 40 µg/mL

SMILES: C=C[C@H]1CC[C@H]2[C@@H]3CC[C@@]4(C=CC(=O)C=C4C)[C@H]3CC[C@]12C [CARIJODIENONE]
- MIC (Klebsiella pneumoniae): 5 µg/mL (≈ 16.9 µM)
- MIC (Bacillus cereus): 6 µg/mL (≈ 20.2 µM)
